Laboratory results published in patent US8716297B2, “Chemical entities to be used for Wee1 inhibition for the treatment of cancer” (AbbVie Inc., priority 2011, dated 2014).

molecular target: T1, GST-tagged-Wee1 kinase (Homo sapiens, UniProt P30291); test: Wee1 time-resolved fluorescence equilibrium binding assay (displacement of Oregon Green-labeled ATP-competitive probe); settings: TR-FRET probe displacement; 2 nM GST-Wee1, 300 nM probe, 1 hour incubation; read-out: Wee-1 binding (Ki nM)
T1 construct: purchased Carnabio 05-177
T1 sequence (P30291 whole entry): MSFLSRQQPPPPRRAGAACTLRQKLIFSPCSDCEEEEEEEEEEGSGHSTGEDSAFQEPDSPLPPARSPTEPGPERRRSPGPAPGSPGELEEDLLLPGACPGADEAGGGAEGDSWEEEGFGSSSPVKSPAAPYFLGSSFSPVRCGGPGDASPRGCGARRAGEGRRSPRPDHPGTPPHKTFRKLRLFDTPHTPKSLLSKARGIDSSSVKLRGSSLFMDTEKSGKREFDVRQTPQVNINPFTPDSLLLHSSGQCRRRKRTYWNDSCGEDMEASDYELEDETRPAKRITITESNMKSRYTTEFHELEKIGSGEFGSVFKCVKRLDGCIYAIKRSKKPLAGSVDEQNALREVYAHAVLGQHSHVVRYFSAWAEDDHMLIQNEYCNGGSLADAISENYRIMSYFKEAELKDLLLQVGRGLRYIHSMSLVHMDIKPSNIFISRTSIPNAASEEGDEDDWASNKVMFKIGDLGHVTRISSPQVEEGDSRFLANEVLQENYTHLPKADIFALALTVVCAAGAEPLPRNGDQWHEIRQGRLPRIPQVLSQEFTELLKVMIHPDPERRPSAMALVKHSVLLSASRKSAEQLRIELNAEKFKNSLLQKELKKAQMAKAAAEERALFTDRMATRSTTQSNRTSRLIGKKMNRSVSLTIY
Procedure: Wee1 kinase was assayed using a time-resolved fluorescence equilibrium binding assay monitoring displacement of a rapidly reversible Oregon Green-labeled ATP-competitive kinase probe (N-(2-(2-(2-(4-(4-(5-chloro-4-(2-(1-hydroxycyclobutyl)thiazol-5-yl)-1H-pyrrolo[2,3-b]pyridin-2-yl)phenyl)piperazin-1-yl)ethoxy)ethoxy)ethyl)-2′,7′-difluoro-3′,6′-dihydroxy-3-oxo-3H-spiro[isobenzofuran-1,9′-xanthene]-5-carboxamide) by competitive Wee1 inhibitors.

Question: How did the Ki turn out when `C=CCN1c2ccccc2-c2nc(Nc3ccc(N4CCN(C(C)=O)CC4)cc3)ncc2S1(=O)=O` [Example 10, 1-(4-{4-[(6-allyl-5,5-dioxido-6H-pyrimido[5,4-c][2,1]benzothiazin-2-yl)amino]phenyl}piperazin-1-yl)ethanone] was run?
Answer: 5 nM

Question: For `C=CCN1c2ccccc2-c2nc(Nc3ccc(C4CCN(C)CC4)cc3)ncc2S1(=O)=O` [Example 19, 6-allyl-N-[4-(1-methylpiperidin-4-yl)phenyl]-6H-pyrimido[5,4-c][2,1]benzothiazin-2-amine 5,5-dioxide], which Ki is on record?
Answer: 1.2 nM

Question: With `CCCN1c2cc(-n3cncn3)ccc2-c2nc(Nc3ccc(N4CCN(C)CC4)cc3)ncc2S1(=O)=O` [Example 94, N-[4-(4-methylpiperazin-1-yl)phenyl]-6-propyl-8-(1H-1,2,4-triazol-1-yl)-6H-pyrimido[5,4-c][2,1]benzothiazin-2-amine 5,5-dioxide] as the compound, how does the Ki read?
Answer: 7 nM

Question: `C=CCN1c2ncccc2-c2nc(Nc3ccc(N4CCN(C)CC4)cn3)ncc2S1(=O)=O` [Example 102, N-[5-(4-methylpiperazin-1-yl)pyridin-2-yl]-6-(prop-2-en-1-yl)-6H-pyrido[2,3-c]pyrimido[4,5-e][1,2]thiazin-2-amine 5,5-dioxide] was tested. Which Ki did it give?
Answer: 210 nM

Question: Which Ki does the source give for `C=CCN1c2ccccc2-c2nc(Nc3ccc4c(c3)N(C(C)=O)CC4)ncc2S1(=O)=O` [Example 5, 1-{6-[(6-allyl-5,5-dioxido-6H-pyrimido[5,4-c][2,1]benzothiazin-2-yl)amino]-2,3-dihydro-1H-indol-1-yl}ethanone] here?
Answer: 9 nM

Question: Which Ki does the source give for `C=CCN1c2ccccc2-c2nc(Nc3ccc(N4CCCCC4)cc3)ncc2S1(=O)=O` [Example 11, 6-allyl-N-[4-(piperidin-1-yl)phenyl]-6H-pyrimido[5,4-c][2,1]benzothiazin-2-amine 5,5-dioxide] here?
Answer: 31 nM

Question: How did the Ki turn out when `CCCN1c2cc(-c3cn[nH]c3)ccc2-c2nc(Nc3ccc(N4CCN(C)CC4)cc3)ncc2S1(=O)=O` [Example 70, N-[4-(4-methylpiperazin-1-yl)phenyl]-6-propyl-8-(1H-pyrazol-4-yl)-6H-pyrimido[5,4-c][2,1]benzothiazin-2-amine 5,5-dioxide] was run?
Answer: 5 nM

Question: Which Ki does the source give for `CCCN1c2cc(-c3ccccc3)ccc2-c2nc(Nc3ccc(N4CCN(C)CC4)cc3)ncc2S1(=O)=O` [Example 68, N-[4-(4-methylpiperazin-1-yl)phenyl]-8-phenyl-6-propyl-6H-pyrimido[5,4-c][2,1]benzothiazin-2-amine 5,5-dioxide] here?
Answer: 92 nM

Question: How did the Ki turn out when `C=CCN1c2ccccc2-c2nc(Nc3ccc(N4CCN(C)CC4)cc3OC)ncc2S1(=O)=O` [Example 15, 6-allyl-N-[2-methoxy-4-(4-methylpiperazin-1-yl)phenyl]-6H-pyrimido[5,4-c][2,1]benzothiazin-2-amine 5,5-dioxide] was run?
Answer: 166 nM

Question: How did the Ki turn out when `C=CCN1c2ncccc2-c2nc(Nc3ccc(N4CCNCC4)c(C(F)(F)F)c3)ncc2S1(=O)=O` [Example 51, 6-allyl-N-[4-(piperazin-1-yl)-3-(trifluoromethyl)phenyl]-6H-pyrido[2,3-c]pyrimido[4,5-e][1,2]thiazin-2-amine 5,5-dioxide] was run?
Answer: 14 nM

Question: How did the Ki turn out when `C=CCN1c2ccccc2-c2nc(Nc3ccc4c(c3)NCCC4)ncc2S1(=O)=O` [Example 30, 6-allyl-N-(1,2,3,4-tetrahydroquinolin-7-yl)-6H-pyrimido[5,4-c][2,1]benzothiazin-2-amine 5,5-dioxide] was run?
Answer: 21 nM

Question: With `C=CCN1c2ccccc2-c2nc(Nc3ccc(N4CCNCC4)c(F)c3)ncc2S1(=O)=O` [Example 31, 6-allyl-N-[3-fluoro-4-(piperazin-1-yl)phenyl]-6H-pyrimido[5,4-c][2,1]benzothiazin-2-amine 5,5-dioxide] as the compound, how does the Ki read?
Answer: 1.7 nM

Question: Which Ki does the source give for `C=CCN1c2ccccc2-c2nc(Nc3ccncc3)ncc2S1(=O)=O` [Example 27, 6-allyl-N-(pyridin-4-yl)-6H-pyrimido[5,4-c][2,1]benzothiazin-2-amine 5,5-dioxide] here?
Answer: 30 nM

Question: With `C=CCN1c2ncccc2-c2nc(Nc3ccc4c(c3)N(C)CCC4)ncc2S1(=O)=O` [Example 49, 6-allyl-N-(1-methyl-1,2,3,4-tetrahydroquinolin-7-yl)-6H-pyrido[2,3-c]pyrimido[4,5-e][1,2]thiazin-2-amine 5,5-dioxide] as the compound, how does the Ki read?
Answer: 45 nM

Question: How did the Ki turn out when `CCCN1c2ccc(Br)cc2-c2nc(Nc3ccc(N4CCN(C)CC4)cc3)ncc2S1(=O)=O` [Example 96, 9-bromo-N-[4-(4-methylpiperazin-1-yl)phenyl]-6-propyl-6H-pyrimido[5,4-c][2,1]benzothiazin-2-amine 5,5-dioxide] was run?
Answer: 2 nM

Question: Which Ki does the source give for `C=CCN1c2c(C(=O)O)cccc2-c2nc(Nc3ccc(N4CCN(C)CC4)cc3)ncc2S1(=O)=O` [Example 59, 6-allyl-2-{[4-(4-methylpiperazin-1-yl)phenyl]amino}-6H-pyrimido[5,4-c][2,1]benzothiazine-7-carboxylic acid 5,5-dioxide] here?
Answer: 141 nM

Question: With `C=CCN1c2ncccc2-c2nc(Nc3ccc(N4CCCN(C)CC4)c(C)c3)ncc2S1(=O)=O` [Example 53, 6-allyl-N-[3-methyl-4-(4-methyl-1,4-diazepan-1-yl)phenyl]-6H-pyrido[2,3-c]pyrimido[4,5-e][1,2]thiazin-2-amine 5,5-dioxide] as the compound, how does the Ki read?
Answer: 1.1 nM

Question: `CCCN1c2cc(-c3ccsc3)ccc2-c2nc(Nc3ccc(N4CCN(C)CC4)cc3)ncc2S1(=O)=O` [Example 74, N-[4-(4-methylpiperazin-1-yl)phenyl]-6-propyl-8-(3-thienyl)-6H-pyrimido[5,4-c][2,1]benzothiazin-2-amine 5,5-dioxide] was tested. Which Ki did it give?
Answer: 20 nM

Question: For `C=CCN1c2ncccc2-c2nc(Nc3ccc(C4CCNC4)cc3)ncc2S1(=O)=O` (stereo not drawn) [Example 45, 6-allyl-N-[4-(pyrrolidin-3-yl)phenyl]-6H-pyrido[2,3-c]pyrimido[4,5-e][1,2]thiazin-2-amine 5,5-dioxide], which Ki is on record?
Answer: 3 nM

Question: How did the Ki turn out when `C=CCN1c2ncccc2-c2nc(Nc3ccc(N4CCNCC4)c(F)c3)ncc2S1(=O)=O` [Example 36, 6-allyl-N-[3-fluoro-4-(piperazin-1-yl)phenyl]-6H-pyrido[2,3-c]pyrimido[4,5-e][1,2]thiazin-2-amine 5,5-dioxide] was run?
Answer: 9 nM

Question: With `C=CCN1c2ccccc2-c2nc(Nc3ccc(-c4nc5cnccc5[nH]4)cc3)ncc2S1(=O)=O` [Example 14, 6-allyl-N-[4-(1H-imidazo[4,5-c]pyridin-2-yl)phenyl]-6H-pyrimido[5,4-c][2,1]benzothiazin-2-amine 5,5-dioxide] as the compound, how does the Ki read?
Answer: 1440 nM
